ChEMBL document CHEMBL3885881, “DrugMatrix”

Species: Rattus norvegicus
Experiment: DrugMatrix - Regimen: Daily Repeat
Type: toxicity, organism-based, Sprague-Dawley
Design: regimen Daily Repeat, gender Male, age 6-8 weeks
Settings: in vivo, po, route oral GAVAGE, vehicle 100 % WATER; for ABSOLUTE BASOPHIL / ABSOLUTE EOSINOPHIL / ABSOLUTE LYMPHOCYTE / ABSOLUTE MONOCYTE / ABSOLUTE SEGMENTED NEUTROPHIL / BASOPHIL / EOSINOPHIL / ERYTHROCYTE COUNT / HEMATOCRIT / HEMOGLOBIN / LEUKOCYTE COUNT / LYMPHOCYTE / MEAN CORPUSCULAR HEMOGLOBIN / MEAN CORPUSCULAR HEMOGLOBIN CONCENTRATION / MEAN CORPUSCULAR VOLUME / MONOCYTE / NEUTROPHIL / NUCLEATED RED BLOOD CELLS / PLATELET COUNT: tissue Blood; for ALANINE AMINOTRANSFERASE / ALBUMIN / ALKALINE PHOSPHATASE / ASPARTATE AMINOTRANSFERASE / BLOOD UREA NITROGEN / CARBON DIOXIDE / CHLORIDE / CHOLESTEROL / CREATINE PHOSPHOKINASE / CREATININE / GLUCOSE / LACTATE DEHYDROGENASE / LIPASE / PHOSPHORUS / POTASSIUM / SODIUM / TOTAL BILIRUBIN / TOTAL PROTEIN / URIC ACID: tissue Plasma
[1] = 20 mg/kg, 72 h, dose level Low, time 3 day
[2] = 20 mg/kg, 120 h, dose level Low, time 5 day
[3] = 2000 mg/kg, 72 h, dose level High, time 3 day
[4] = 2000 mg/kg, 120 h, dose level High, time 5 day

Compound: C[C@H]1O[C@H](O[C@H]2[C@H](O)[C@@H](O)[C@@H](O[C@H]3[C@H](O)[C@@H](O)C(O)O[C@@H]3CO)O[C@@H]2CO)[C@H](O)[C@@H](O)[C@@H]1N[C@H]1C=C(CO)[C@@H](O)[C@H](O)[C@H]1O (some centres not stated) [ACARBOSE]
- ABSOLUTE BASOPHIL [1]: 0 CELLS/uL
- ABSOLUTE EOSINOPHIL [1]: 64.67 CELLS/uL
- ABSOLUTE LYMPHOCYTE [1]: 10120.67 CELLS/uL
- ABSOLUTE MONOCYTE [1]: 0 CELLS/uL
- ABSOLUTE SEGMENTED NEUTROPHIL [1]: 948 CELLS/uL
- BASOPHIL [1]: 0%
- EOSINOPHIL [1]: 0.67%
- ERYTHROCYTE COUNT [1]: 5.03 x10E6/uL
- HEMATOCRIT [1]: 31.8%
- HEMOGLOBIN [1]: 12.87 G/DL
- LEUKOCYTE COUNT [1]: 11.13 x10E3/uL
- LYMPHOCYTE [1]: 91.33%
- MEAN CORPUSCULAR HEMOGLOBIN [1]: 25.6 pg
- MEAN CORPUSCULAR HEMOGLOBIN CONCENTRATION [1]: 40.47 G/DL
- MEAN CORPUSCULAR VOLUME [1]: 63.17 fL
- MONOCYTE [1]: 0%
- NEUTROPHIL [1]: 8%
- NUCLEATED RED BLOOD CELLS [1]: 0 /100WBC
- PLATELET COUNT [1]: 1088.33 x10E3/uL
- ALANINE AMINOTRANSFERASE [1]: 51.33 u/L
- ALBUMIN [1]: 4.1 G/DL
- ALKALINE PHOSPHATASE [1]: 389.33 u/L
- ASPARTATE AMINOTRANSFERASE [1]: 87.67 u/L
- BLOOD UREA NITROGEN [1]: 16.67 mg/dL
- CARBON DIOXIDE [1]: 24.33 mmol/L
- CHLORIDE [1]: 102.33 MEQ/L
- CHOLESTEROL [1]: 70.33 mg/dL
- CREATINE PHOSPHOKINASE [1]: 377 u/L
- CREATININE [1]: 0.18 mg/dL
- GLUCOSE [1]: 148.33 mg/dL
- LACTATE DEHYDROGENASE [1]: 368.33 u/L
- LIPASE [1]: 8.33 u/L
- PHOSPHORUS [1]: 14.03 mg/dL
- POTASSIUM [1]: 6.96 MEQ/L
- SODIUM [1]: 145.97 MEQ/L
- TOTAL BILIRUBIN [1]: 0.23 mg/dL
- TOTAL PROTEIN [1]: 5.73 G/DL
- URIC ACID [1]: 1.43 mg/dL
- ABSOLUTE BASOPHIL [2]: 0 CELLS/uL
- ABSOLUTE EOSINOPHIL [2]: 33.67 CELLS/uL
- ABSOLUTE LYMPHOCYTE [2]: 11112 CELLS/uL
- ABSOLUTE MONOCYTE [2]: 101.33 CELLS/uL
- ABSOLUTE SEGMENTED NEUTROPHIL [2]: 919.67 CELLS/uL
- BASOPHIL [2]: 0%
- EOSINOPHIL [2]: 0.33%
- ERYTHROCYTE COUNT [2]: 5.14 x10E6/uL
- HEMATOCRIT [2]: 33.7%
- HEMOGLOBIN [2]: 13.33 G/DL
- LEUKOCYTE COUNT [2]: 12.17 x10E3/uL
- LYMPHOCYTE [2]: 91%
- MEAN CORPUSCULAR HEMOGLOBIN [2]: 26 pg
- MEAN CORPUSCULAR HEMOGLOBIN CONCENTRATION [2]: 39.57 G/DL
- MEAN CORPUSCULAR VOLUME [2]: 65.63 fL
- MONOCYTE [2]: 1%
- NEUTROPHIL [2]: 7.67%
- NUCLEATED RED BLOOD CELLS [2]: 1 /100WBC
- PLATELET COUNT [2]: 1353.33 x10E3/uL
- ALANINE AMINOTRANSFERASE [2]: 52.33 u/L
- ALBUMIN [2]: 4.4 G/DL
- ALKALINE PHOSPHATASE [2]: 361.67 u/L
- ASPARTATE AMINOTRANSFERASE [2]: 74.67 u/L
- BLOOD UREA NITROGEN [2]: 17.33 mg/dL
- CARBON DIOXIDE [2]: 27.33 mmol/L
- CHLORIDE [2]: 101.33 MEQ/L
- CHOLESTEROL [2]: 74 mg/dL
- CREATINE PHOSPHOKINASE [2]: 186 u/L
- CREATININE [2]: 0.17 mg/dL
- GLUCOSE [2]: 180.33 mg/dL
- LACTATE DEHYDROGENASE [2]: 91.33 u/L
- LIPASE [2]: 8.67 u/L
- PHOSPHORUS [2]: 13.03 mg/dL
- POTASSIUM [2]: 6.7 MEQ/L
- SODIUM [2]: 145.5 MEQ/L
- TOTAL BILIRUBIN [2]: 0.2 mg/dL
- TOTAL PROTEIN [2]: 6.1 G/DL
- URIC ACID [2]: 1.6 mg/dL
- ABSOLUTE BASOPHIL [3]: 0 CELLS/uL
- ABSOLUTE EOSINOPHIL [3]: 47 CELLS/uL
- ABSOLUTE LYMPHOCYTE [3]: 15977.33 CELLS/uL
- ABSOLUTE MONOCYTE [3]: 106.67 CELLS/uL
- ABSOLUTE SEGMENTED NEUTROPHIL [3]: 835.67 CELLS/uL
- BASOPHIL [3]: 0%
- EOSINOPHIL [3]: 0.33%
- ERYTHROCYTE COUNT [3]: 5.96 x10E6/uL
- HEMATOCRIT [3]: 39.13%
- HEMOGLOBIN [3]: 15.37 G/DL
- LEUKOCYTE COUNT [3]: 16.97 x10E3/uL
- LYMPHOCYTE [3]: 94%
- MEAN CORPUSCULAR HEMOGLOBIN [3]: 25.73 pg
- MEAN CORPUSCULAR HEMOGLOBIN CONCENTRATION [3]: 39.27 G/DL
- MEAN CORPUSCULAR VOLUME [3]: 65.6 fL
- MONOCYTE [3]: 0.67%
- NEUTROPHIL [3]: 5%
- NUCLEATED RED BLOOD CELLS [3]: 1 /100WBC
- PLATELET COUNT [3]: 1523.33 x10E3/uL
- ALANINE AMINOTRANSFERASE [3]: 43 u/L
- ALBUMIN [3]: 4.63 G/DL
- ALKALINE PHOSPHATASE [3]: 324.67 u/L
- ASPARTATE AMINOTRANSFERASE [3]: 88 u/L
- BLOOD UREA NITROGEN [3]: 20.33 mg/dL
- CARBON DIOXIDE [3]: 28.33 mmol/L
- CHLORIDE [3]: 105.67 MEQ/L
- CHOLESTEROL [3]: 86 mg/dL
- CREATINE PHOSPHOKINASE [3]: 443.33 u/L
- CREATININE [3]: 0.21 mg/dL
- GLUCOSE [3]: 160.67 mg/dL
- LACTATE DEHYDROGENASE [3]: 447.33 u/L
- LIPASE [3]: 10 u/L
- PHOSPHORUS [3]: 14.07 mg/dL
- POTASSIUM [3]: 7.15 MEQ/L
- SODIUM [3]: 150.93 MEQ/L
- TOTAL BILIRUBIN [3]: 0.1 mg/dL
- TOTAL PROTEIN [3]: 6.8 G/DL
- URIC ACID [3]: 2.5 mg/dL
- ABSOLUTE BASOPHIL [4]: 0 CELLS/uL
- ABSOLUTE EOSINOPHIL [4]: 0 CELLS/uL
- ABSOLUTE LYMPHOCYTE [4]: 17167.33 CELLS/uL
- ABSOLUTE MONOCYTE [4]: 176.67 CELLS/uL
- ABSOLUTE SEGMENTED NEUTROPHIL [4]: 1189.33 CELLS/uL
- BASOPHIL [4]: 0%
- EOSINOPHIL [4]: 0%
- ERYTHROCYTE COUNT [4]: 5.82 x10E6/uL
- HEMATOCRIT [4]: 35.33%
- HEMOGLOBIN [4]: 14.37 G/DL
- LEUKOCYTE COUNT [4]: 18.53 x10E3/uL
- LYMPHOCYTE [4]: 92.33%
- MEAN CORPUSCULAR HEMOGLOBIN [4]: 24.67 pg
- MEAN CORPUSCULAR HEMOGLOBIN CONCENTRATION [4]: 40.67 G/DL
- MEAN CORPUSCULAR VOLUME [4]: 60.77 fL
- MONOCYTE [4]: 1%
- NEUTROPHIL [4]: 6.67%
- NUCLEATED RED BLOOD CELLS [4]: 0 /100WBC
- PLATELET COUNT [4]: 1249.33 x10E3/uL
- ALANINE AMINOTRANSFERASE [4]: 68 u/L
- ALBUMIN [4]: 4.23 G/DL
- ALKALINE PHOSPHATASE [4]: 385.33 u/L
- ASPARTATE AMINOTRANSFERASE [4]: 101.67 u/L
- BLOOD UREA NITROGEN [4]: 21.67 mg/dL
- CARBON DIOXIDE [4]: 33.67 mmol/L
- CHLORIDE [4]: 102.33 MEQ/L
- CHOLESTEROL [4]: 76.67 mg/dL
- CREATINE PHOSPHOKINASE [4]: 356 u/L
- CREATININE [4]: 0.23 mg/dL
- GLUCOSE [4]: 153.67 mg/dL
- LACTATE DEHYDROGENASE [4]: 345 u/L
- LIPASE [4]: 10.33 u/L
- PHOSPHORUS [4]: 12.8 mg/dL
- POTASSIUM [4]: 7.54 MEQ/L
- SODIUM [4]: 145.93 MEQ/L
- TOTAL BILIRUBIN [4]: 0.1 mg/dL
- TOTAL PROTEIN [4]: 5.93 G/DL
- URIC ACID [4]: 1.6 mg/dL
